The experiment deals with GCN2 (Homo sapiens, UniProt Q9P2K8). Kind of experiment: GCN2 enzyme assay (TR-FRET Lanthascreen, phosphorylation of GFP-eIF2alpha). Format: biochemical. The note with it: 10 μM ATP, 80 nM GFP-eIF2alpha, 30 nM GCN2, room temperature. The text has this:
GCN2: Assay principle & conditions
This assay can quantificate the activity of the serin kinase GCN2 (general control non-derepressible-2).
This kinase is involved in the stress metabolism of cells. It is activated upon starvation (amino acid depletion). Its natural substrate is eIF2a (eukaryotic initiation factor 2 alpha subunit), a translation factor, which gets activated (phosphorylated) by GCN2 in case of an amino acid bottleneck in the cells. This in turn leads to a halt of the protein synthesis. Inhibition of GCN2 results in stopping this mechanism: The cell can not stop protein production upon “starvation” stress.
The assay is run in two steps: the enzymatic reaction and the detection step. In the first step GCN2 is incubated with 10 μM ATP and 80 nM of the GFP-labelled substrate eIF2alpha at room temperature.
The enzymatic reaction is stopped by addition of EDTA. The amount of phosphorylated eIF2alpha is determined by TR-FRET (Lanthascreen): A complex is formed consisting of antibody and GFP labelled phospho-eIF2a, which allows a FRET upon exitation at 340 nm.
The GCN2-activity is directly proportional to the ratio of fluorescence units at the emission wavelengthh 520 nm (phosphopeptide-sensitive wavelength=emission of GFP) to the units at 495 nm (reference wavelength=emission of Terbium-chelate).
Final Concentrations in the Enzymatic Reaction
Background: TR-FRET usually uses a lanthanide donor and a delayed reading to cut background.

A word on the IC50: it is the midpoint of a concentration-inhibition curve.

Sequence of GCN2 (Q9P2K8 whole entry, species assumed): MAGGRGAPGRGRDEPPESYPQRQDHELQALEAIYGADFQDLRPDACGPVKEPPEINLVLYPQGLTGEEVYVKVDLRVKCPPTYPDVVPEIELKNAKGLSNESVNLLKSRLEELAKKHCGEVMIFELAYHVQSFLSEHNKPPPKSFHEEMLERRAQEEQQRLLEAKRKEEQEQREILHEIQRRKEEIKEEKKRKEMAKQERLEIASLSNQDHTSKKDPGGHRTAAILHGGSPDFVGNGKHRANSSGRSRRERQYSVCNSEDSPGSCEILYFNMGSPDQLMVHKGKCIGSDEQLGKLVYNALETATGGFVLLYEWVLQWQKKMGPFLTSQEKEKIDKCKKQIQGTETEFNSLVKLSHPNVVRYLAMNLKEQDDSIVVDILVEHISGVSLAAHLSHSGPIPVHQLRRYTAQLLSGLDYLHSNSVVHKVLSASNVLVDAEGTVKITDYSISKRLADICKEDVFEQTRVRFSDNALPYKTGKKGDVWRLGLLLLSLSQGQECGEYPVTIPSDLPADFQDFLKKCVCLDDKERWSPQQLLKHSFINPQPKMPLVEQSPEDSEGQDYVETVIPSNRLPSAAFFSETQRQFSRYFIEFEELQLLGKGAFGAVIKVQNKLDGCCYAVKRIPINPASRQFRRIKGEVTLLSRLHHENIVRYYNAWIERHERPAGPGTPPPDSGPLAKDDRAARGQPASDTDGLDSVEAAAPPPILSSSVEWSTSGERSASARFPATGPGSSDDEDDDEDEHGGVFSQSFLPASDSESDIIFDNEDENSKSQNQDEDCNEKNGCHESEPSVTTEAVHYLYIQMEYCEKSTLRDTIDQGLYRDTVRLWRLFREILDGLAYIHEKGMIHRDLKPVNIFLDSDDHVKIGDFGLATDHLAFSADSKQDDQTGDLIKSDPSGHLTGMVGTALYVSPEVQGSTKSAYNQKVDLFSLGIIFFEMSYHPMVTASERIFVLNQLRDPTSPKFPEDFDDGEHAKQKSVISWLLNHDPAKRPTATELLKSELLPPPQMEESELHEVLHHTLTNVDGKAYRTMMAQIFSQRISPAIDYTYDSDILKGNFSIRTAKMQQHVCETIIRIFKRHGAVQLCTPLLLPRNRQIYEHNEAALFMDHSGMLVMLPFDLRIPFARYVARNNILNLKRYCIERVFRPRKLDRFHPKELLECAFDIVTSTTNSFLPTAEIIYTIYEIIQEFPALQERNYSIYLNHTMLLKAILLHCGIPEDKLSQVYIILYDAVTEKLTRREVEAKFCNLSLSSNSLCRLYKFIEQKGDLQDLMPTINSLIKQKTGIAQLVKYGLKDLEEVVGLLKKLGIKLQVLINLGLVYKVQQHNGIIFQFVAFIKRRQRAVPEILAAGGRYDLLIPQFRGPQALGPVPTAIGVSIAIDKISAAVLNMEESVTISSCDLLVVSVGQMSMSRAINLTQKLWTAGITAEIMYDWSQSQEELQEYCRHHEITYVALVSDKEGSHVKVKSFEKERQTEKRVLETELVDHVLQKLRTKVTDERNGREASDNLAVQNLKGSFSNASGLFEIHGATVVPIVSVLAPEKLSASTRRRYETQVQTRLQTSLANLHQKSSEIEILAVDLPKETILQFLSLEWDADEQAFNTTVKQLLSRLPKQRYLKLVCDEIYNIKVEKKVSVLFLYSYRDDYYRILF

The compound `CCn1cc(-n2nnc3cnc(Nc4cnn(CCC(C)C)c4)nc32)cn1` [Compound A89, [3-(1-ethyl-1H-pyrazol-4-yl)-3H-[1,2,3]triazolo[4,5-d]pyrimidin-5-yl]-[1-(3-methyl-butyl)-1H-pyrazol-4-yl]-amine] yielded an IC50 below 300 nM.

In turn, `CN1CCC(n2cc(Nc3ncc4nnn(-c5cnc6ccccc6c5)c4n3)cn2)CC1` [Compound A52, [1-(1-methyl-piperidin-4-yl)-1H-pyrazol-4-yl]-(3-quinolin-3-yl-3H-[1,2,3]triazolo[4,5-d]pyrimidin-5-yl)-amine] showed a concentration for half-maximal inhibition (IC50) below 300 nM.

Take `COc1ccc(-n2nnc3cnc(Nc4nc(-c5ccc(NC(C)=O)cc5)cs4)nc32)cc1` [Compound A42, N-[4-[2-[[3-(4-methoxyphenyl)triazolo[4,5-d]pyrimidin-5-yl]amino]thiazol-4-yl]phenyl]acetamide]: the IC50 lay within 300 to 3000 nM.

For `CCn1cc(Nc2ncc3nnn(-c4ccc(NC(C)=O)nc4)c3n2)cn1` [Compound A58, N-{5-[5-(1-ethyl-1H-pyrazol-4-ylamino)-[1,2,3]triazolo[4,5-d]pyrimidin-3-yl]-pyridin-2-yl}-acetamide], the IC50 was below 300 nM.

Consider `c1cnc2cc(-n3nnc4cnc(Nc5cnn(C6CCOCC6)c5)nc43)ccc2c1` [Compound A86, (3-quinolin-7-yl-3H-[1,2,3]triazolo[4,5-d]pyrimidin-5-yl)-[1-(tetrahydro-pyran-4-yl)-1H-pyrazol-4-yl]-amine], for which the half-inhibitory concentration (IC50) is below 300 nM.

With `CCCCOc1ccc(-n2nnc3cnc(Nc4cnn(CCC5CCNCC5)c4)nc32)cn1` [Compound A55, [3-(6-butoxy-pyridin-3-yl)-3H-[1,2,3]triazolo[4,5-d]pyrimidin-5-yl]-[1-(2-piperidin-4-yl-ethyl)-1H-pyrazol-4-yl]-amine], the 50% inhibitory concentration (IC50) was 300 to 3000 nM.

`COc1ccc(-n2nnc3cnc(/N=C4/N=C(C)CO4)nc32)cc1` [Compound A12, [3-(4-methoxy-phenyl)-3H-[1,2,3]triazolo[4,5-d]pyrimidin-5-yl]-[4-methyl-5H-oxazol-(2Z)-ylidene]-amine]: the IC50 lay in the range of 3000 to 50000 nM.

As for `CS(=O)(=O)N1CCC(n2cc(Nc3ncc4nnn(-c5ccc(F)c(Cl)c5)c4n3)cn2)CC1` [Compound A154, [3-(3-chloro-4-fluoro-phenyl)-3H-[1,2,3]triazolo[4,5-d]pyrimidin-5-yl]-[1-(1-methanesulfonyl-piperidin-4-yl)-1H-pyrazol-4-yl]-amine], the IC50 is 300 to 3000 nM.

`CC(C)CCn1cc(Nc2ncc3nnn(-c4ccc5ncccc5c4)c3n2)cn1` [Compound A90, [1-(3-methyl-butyl)-1H-pyrazol-4-yl]-(3-quinolin-6-yl-3H-[1,2,3]triazolo[4,5-d]pyrimidin-5-yl)-amine]: the IC50 was below 300 nM.

In turn, `CC(C)(F)c1ccc(-n2nnc3cnc(Nc4cnn(C5CCOCC5)c4)nc32)cc1` [Compound A144, {3-[4-(1-fluoro-1-methyl-ethyl)-phenyl]-3H-[1,2,3]triazolo[4,5-d]pyrimidin-5-yl}-[1-(tetrahydro-pyran-4-yl)-1H-pyrazol-4-yl]-amine] showed a concentration for half-maximal inhibition (IC50) below 300 nM.

The compound `CC(C)(N)c1ccc(-n2nnc3cnc(Nc4cnn(C5CCOCC5)c4)nc32)cc1` [Compound A152, {3-[4-(1-amino-1-methyl-ethyl)-phenyl]-3H-[1,2,3]triazolo[4,5-d]pyrimidin-5-yl}-[1-(tetrahydro-pyran-4-yl)-1H-pyrazol-4-yl]-amine] registered an IC50 below 300 nM.

Regarding `COc1ccc(-n2nnc3cnc(Nc4cnn([C@H]5CC[C@@H](O)CC5)c4)nc32)cn1` [Compound A137, 4-{4-[3-(6-methoxy-pyridin-3-yl)-3H-[1,2,3]triazolo[4,5-d]pyrimidin-5-ylamino]-pyrazol-1-yl}-cyclohexanol], the 50% inhibitory concentration (IC50) lay within 300 to 3000 nM.

With `COc1ccc(-n2nnc3cnc(Nc4cnn(N5CCOCC5=O)c4)nc32)cc1` [Compound A138, 4-{4-[3-(4-methoxy-phenyl)-3H-[1,2,3]triazolo[4,5-d]pyrimidin-5-ylamino]-pyrazol-1-yl}-morpholin-3-one], the IC50 is below 300 nM.

For the compound `COc1ccc(-n2nnc3cnc(Nc4ncn[nH]4)nc32)cc1` [Compound A17, [3-(4-methoxy-phenyl)-3H-[1,2,3]triazolo[4,5-d]pyrimidin-5-yl]-(2H-[1,2,4]triazol-3-yl)-amine], the IC50 fell in the range of 3000 to 50000 nM.

`CCn1cc(Nc2ncc3nnn(-c4ccc(F)cc4)c3n2)cn1` [Compound A63, (1-ethyl-1H-pyrazol-4-yl)-[3-(4-fluoro-phenyl)-3H-[1,2,3]triazolo[4,5-d]pyrimidin-5-yl]-amine] came in with a 50% inhibitory concentration (IC50) below 300 nM.

With `COc1ccc(-n2nnc3cnc(Nc4cnn([C@H]5CC[C@H](O)CC5)c4)nc32)nc1` [Compound A143, 4-{4-[3-(5-methoxy-pyridin-2-yl)-3H-[1,2,3]triazolo[4,5-d]pyrimidin-5-ylamino]-pyrazol-1-yl}-cyclohexanol], the IC50 was below 300 nM.

The compound `O[C@H]1CC[C@@H](n2cc(Nc3ncc4nnn(-c5ccc(Cl)c(F)c5)c4n3)cn2)CC1` [Compound A102, 4-{4-[3-(4-chloro-3-fluoro-phenyl)-3H-[1,2,3]triazolo[4,5-d]pyrimidin-5-ylamino]-pyrazol-1-yl}-cyclohexanol] returned an IC50 of 300 to 3000 nM.

Compound `Fc1ccc(-n2nnc3cnc(Nc4cnn(C5CCOCC5)c4)nc32)cc1Cl` [Compound A110, [3-(3-chloro-4-fluoro-phenyl)-3H-[1,2,3]triazolo[4,5-d]pyrimidin-5-yl]-[1-(tetrahydro-pyran-4-yl)-1H-pyrazol-4-yl]-amine] showed an IC50 of 300 to 3000 nM.

On to `CCOc1ccc(-n2nnc3cnc(Nc4cnn(C5CCNCC5)c4)nc32)cc1` [Compound A7, [3-(4-Ethoxy-phenyl)-3H-[1,2,3]triazolo[4,5-d]pyrimidin-5-yl]-(1-piperidin-4-yl-1H-pyrazol-4-yl)-amine], for which the IC50 is below 300 nM.

`CCOc1ccc(-n2nnc3cnc(Nc4cnn(C5CCOCC5)c4)nc32)cc1` [Compound A15, [3-(4-ethoxy-phenyl)-3H-[1,2,3]triazolo[4,5-d]pyrimidin-5-yl]-[1-(tetrahydro-pyran-4-yl)-1H-pyrazol-4-yl]-amine] displayed an IC50 below 300 nM.

The compound `CCOc1ccc(-n2nnc3cnc(Nc4cnn(C5CN(C(=O)COC)C5)c4)nc32)cc1` [Compound A150, 1-(3-{4-[3-(4-ethoxy-phenyl)-3H-[1,2,3]triazolo[4,5-d]pyrimidin-5-ylamino]-pyrazol-1-yl}-azetidin-1-yl)-2-methoxy-ethanone] had an IC50 below 300 nM.

As for `O=C1CCCN1c1ccc(-n2nnc3cnc(Nc4cnn(C5CCOCC5)c4)nc32)cc1` [Compound A43, 1-[4-[5-[(1-tetrahydropyran-4-ylpyrazol-4-yl)amino]triazolo[4,5-d]pyrimidin-3-yl]phenyl]pyrrolidin-2-one], the IC50 was below 300 nM.

In turn, `Fc1ccc(-n2nnc3cnc(Nc4cnn(C5CCOCC5)c4)nc32)cc1F` [Compound A116, [3-(3,4-difluoro-phenyl)-3H-[1,2,3]triazolo[4,5-d]pyrimidin-5-yl]-[1-(tetrahydro-pyran-4-yl)-1H-pyrazol-4-yl]-amine] gave an IC50 of 300 to 3000 nM.

`CCCCOc1ccc(-n2nnc3cnc(Nc4cnn(C5CCN(C)CC5)c4)nc32)cn1` [Compound A45, [3-(6-butoxy-pyridin-3-yl)-3H-[1,2,3]triazolo[4,5-d]pyrimidin-5-yl]-[1-(1-methyl-piperidin-4-yl)-1H-pyrazol-4-yl]-amine] came in with an IC50 of 300 to 3000 nM.

The values are drawn from US9409914B2, “Triazolo[4,5-d]pyrimidine derivatives” (Merck Patent GmbH, priority 2012, dated 2016).
